Data on 16 molecules can be found in patent US11957683B2, “Bicyclic compounds” (Aligos Therapeutics, Inc., priority 2021, dated 2024).

One series has as its system HBV. In words: HBV-DNA antiviral assay using HepG2.117 cells. In kind it is cell-based, HBV genotype D. The settings on record: Hepatitis B virus, 72 h; HBV DNA inhibition, intracellular HBV DNA by qPCR, HepG2.117 cells, 3 days incubation; read-out: EC50. How it is done:
(§1) The following assay procedure describes the HBV antiviral assay, using HepG2.117 cells, which carry a stably integrated genotype D HBV genome under the control of a Tet-off promoter, and intracellular HBV DNA quantification as endpoint. Cell viability is assessed in parallel by measuring the intracellular ATP content using CellTiter-Glo 2.0 (Promega).
On day 0, HepG2.117 cells (which are maintained in routine cell culture with doxycycline present in the medium at a final concentration of 1 μg/mL) are seeded in 96-well plates (white with clear bottom) at a density of 2.0×10^4 cells/well (0.1 mL/well) in medium without doxycycline to induce pgRNA transcription and subsequent formation of HBV particles. The cells are incubated at 37° C. and 5% CO2.
(§2) On day 1, medium is removed from each well, the test articles are diluted in culture medium without doxcycyline and 100 μL was added to cell culture wells (9 concentrations, 4-fold dilution). For each plate, 6 untreated (merely DMSO) wells are included. The final concentration of DMSO in the culture medium is 2%. Each plate is prepared in duplicate (one for HBV DNA extraction, one for CellTiter-Glo 2.0 measurement). The cells are incubated at 37° C. and 5% CO2 for 3 days.
(§3) On day 4, cell viability is assessed using CellTiter-Glo 2.0 and cell lysates are prepared for HBV DNA extraction and subsequent quantification by qPCR.
Medium is removed from each well and 100 μL of 0.33% NP-40 in H2O was added to each well. Plates are sealed, incubated at 4° C. for 5 mins, vortexed extensively and centrifuged briefly. Next, 35 μL of lysate is added to 65 μL QuickExtract DNA Extraction Solution (Epicentre) in a PCR plate for each well. PCR plate is incubated at 65° C. for 6 mins, 98° C. for 2 mins and finally cooled to 4° C. HBV DNA is then quantified by qPCR with HBV-specific primers and probes as specified in Table 2 using the Bio-Rad SSOAdvanced Universal Probes Supermix on a CFX96 machine (Bio-Rad). The PCR cycle program consisted of 95° C. for 3 mins, followed by 40 cycles at 95° C. for 10 sec and 60° C. for 30 sec.
A DNA standard is prepared by dilution of an IDT gBlock corresponding to the amplicon with concentrations ranging from 10^2 to 10^8 copies/input (i.e., per 4 μL) and used to generate a standard curve by plotting Cq values vs. HBV DNA standard concentration. The quantity of HBV DNA in each sample is determined by interpolating from the standard curve.
(§4) Cell viability is calculated as follows: % Cell viability=(luminescence value of test sample)/(average luminescence value of 2% DMSO control)×100%. HBV DNA inhibition was calculated as follows: 100−(HBV DNA copy number of test sample)/(average HBV DNA copy number of 2% DMSO control)×100%. No normalization to entecavir is required due to the excellent dynamic window of this assay. The CC50, EC50 and EC90 values were determined by dose-response curves fitted using non-linear regression.

Series [1] can be described thus: Cell viability by CellTiter-Glo 2.0 (intracellular ATP) in HepG2.117 cells. In kind it is cell-based. The settings on record: human, CellTiter-Glo 2.0, HepG2.117 cells, 3 days incubation. How it is done:
as §1, §2, §3
Using the other plates, the cell viability is quantified by CellTiter-Glo 2.0 according to the manufacturer's manual. In brief, 100 μL of reagent solution is added to the culture plates and shaken for 2′. The plates are incubated at rt for 10 min and luminescence signal is subsequently measured on a VarioSkan Lux (ThermoFisher) plate reader.
as §4

With `C=C[C@H](C)Nc1nc2c(c(=O)n1-c1ccc(C(=O)NC)c(Cl)c1)C[C@@H](C)N(C(=O)c1ccc(Br)c(C(F)(F)F)c1)C2` [Compound 20, 4-((R)-7-(4-bromo-3-(trifluoromethyl)benzoyl)-2-(((S)-but-3-en-2-yl)amino)-6-methyl-4-oxo-5,6,7,8-tetrahydropyrido[3,4-d]pyrimidin-3(4H)-yl)-2-chloro-N-methylbenzamide], in the series on HBV, the EC50 is less than 0.05 µM. In series [1], this molecule displayed a CC50 at 3 days of 2.95 µM.

Regarding `C=C[C@@H](C)Nc1nc2c(c(=O)n1-c1ccc(-c3nncn3C)cc1)C[C@@H](C)N(C(=O)c1ccc(Br)c(C(F)(F)F)c1)C2` [Compound 22, (R)-7-(4-bromo-3-(trifluoromethyl)benzoyl)-2-(((R)-but-3-en-2-yl)amino)-6-methyl-3-(4-(4-methyl-4H-1,2,4-triazol-3-yl)phenyl)-5,6,7,8-tetrahydropyrido[3,4-d]pyrimidin-4(3H)-one], the EC50 with HBV was less than 0.05 µM. In series [1], this molecule returned a CC50 at 3 days greater than 50 µM.

Take `CNC(=O)c1ccc(-n2c(C#CCC(C)C)nc3c(c2=O)C[C@@H](C)N(C(=O)c2ccc(Br)c(C(F)(F)F)c2)C3)cc1` [Compound 23, (R)-4-(7-(4-bromo-3-(trifluoromethyl)benzoyl)-6-methyl-2-(4-methylpent-1-yn-1-yl)-4-oxo-5,6,7,8-tetrahydropyrido[3,4-d]pyrimidin-3(4H)-yl)-N-methylbenzamide]: the EC50 with HBV is 0.05 to 0.5 µM. The molecule further yielded a CC50 at 3 days in series [1] of 11.7 µM.

For the molecule `C=C[C@H](C)Nc1nc2c(c(=O)n1-c1ccc(C(=O)NC)cn1)C[C@@H](C)N(C(=O)c1ccc(Br)c(C(F)(F)F)c1)C2` [Compound 24, 6-((R)-7-(4-bromo-3-(trifluoromethyl)benzoyl)-2-(((S)-but-3-en-2-yl)amino)-6-methyl-4-oxo-5,6,7,8-tetrahydropyrido[3,4-d]pyrimidin-3(4H)-yl)-N-methylnicotinamide], in the series on HBV, the half-maximal effective concentration (EC50) was less than 0.05 µM. The same molecule yielded a CC50 at 3 days in series [1] greater than 0.5 µM.

On to `C=C[C@H](C)Nc1nc2c(c(=O)n1-c1ccc3ncn(C)c3c1)C[C@@H](C)N(C(=O)c1ccc(Br)c(C(F)(F)F)c1)C2` [Compound 25, (R)-7-(4-bromo-3-(trifluoromethyl)benzoyl)-2-(((S)-but-3-en-2-yl)amino)-6-methyl-3-(1-methyl-1H-benzo[d]imidazol-6-yl)-5,6,7,8-tetrahydropyrido[3,4-d]pyrimidin-4(3H)-one], for which the EC50 in the series with HBV is less than 0.05 µM. In series [1], the CC50 at 3 days is 29.7 µM.

In the case of `C=C[C@H](C)Nc1nc2c(c(=O)n1-c1cnc3c(c1)ncn3C)C[C@@H](C)N(C(=O)c1ccc(Br)c(C(F)(F)F)c1)C2` [Compound 26, (R)-7-(4-bromo-3-(trifluoromethyl)benzoyl)-2-(((S)-but-3-en-2-yl)amino)-6-methyl-3-(3-methyl-3H-imidazo[4,5-b]pyridin-6-yl)-5,6,7,8-tetrahydropyrido[3,4-d]pyrimidin-4(3H)-one], in the series with HBV, the EC50 was less than 0.05 µM. The CC50 at 3 days in series [1] is greater than 0.5 µM.

In the case of `C=C[C@H](C)Nc1nc2c(c(=O)n1-c1ccc(-c3cnn(C)c3)cc1)C[C@@H](C)N(C(=O)c1ccc(Br)c(C(F)(F)F)c1)C2` [Compound 27, (R)-7-(4-bromo-3-(trifluoromethyl)benzoyl)-2-(((S)-but-3-en-2-yl)amino)-6-methyl-3-(4-(1-methyl-1H-pyrazol-4-yl)phenyl)-5,6,7,8-tetrahydropyrido[3,4-d]pyrimidin-4(3H)-one], in the series on HBV, the EC50 is less than 0.05 µM. In series [1], it took 22.8 µM to reach half-maximal cytotoxicity (CC50 at 3 days).

`C=C[C@H](C)Nc1nc2c(c(=O)n1-c1ccc3c(c1)nc(C)n3C)C[C@@H](C)N(C(=O)c1ccc(Br)c(C(F)(F)F)c1)C2` [Compound 28, (R)-7-(4-bromo-3-(trifluoromethyl)benzoyl)-2-(((S)-but-3-en-2-yl)amino)-3-(1,2-dimethyl-1H-benzo[d]imidazol-5-yl)-6-methyl-5,6,7,8-tetrahydropyrido[3,4-d]pyrimidin-4(3H)-one]: the EC50 in the series on HBV is less than 0.05 µM. Also, in series [1], the CC50 at 3 days was 30.5 µM.

As to `C=CC(C)(C)Nc1nc2c(c(=O)n1-c1ccc3c(c1)ncn3C)C[C@@H](C)N(C(=O)c1ccc(Br)c(C(F)(F)F)c1)C2` [Compound 29, (R)-7-(4-bromo-3-(trifluoromethyl)benzoyl)-6-methyl-3-(1-methyl-1H-benzo[d]imidazol-5-yl)-2-((2-methylbut-3-en-2-yl)amino)-5,6,7,8-tetrahydropyrido[3,4-d]pyrimidin-4(3H)-one], the EC50 in the series with HBV is less than 0.05 µM. Also, the CC50 at 3 days in series [1] came out at 30.5 µM.

Turning to `C=C[C@H](C)Nc1nc2c(c(=O)n1-c1ccc(C(=O)NC)nn1)C[C@@H](C)N(C(=O)c1ccc(Br)c(C(F)(F)F)c1)C2` [Compound 30, 6-((R)-7-(4-bromo-3-(trifluoromethyl)benzoyl)-2-(((S)-but-3-en-2-yl)amino)-6-methyl-4-oxo-5,6,7,8-tetrahydropyrido[3,4-d]pyrimidin-3(4H)-yl)-N-methylpyridazine-3-carboxamide], the EC50 with HBV was less than 0.05 µM. For the same molecule, in series [1], the CC50 at 3 days is greater than 50 µM.

For `C=C[C@H](C)Nc1nc2c(c(=O)n1-c1cc3ncn(C)c3cc1F)C[C@@H](C)N(C(=O)c1ccc(Br)c(C(F)(F)F)c1)C2` [Compound 32a, (R)-7-(4-bromo-3-(trifluoromethyl)benzoyl)-2-(((S)-but-3-en-2-yl)amino)-3-(6-fluoro-1-methyl-1H-benzo[d]imidazol-5-yl)-6-methyl-5,6,7,8-tetrahydropyrido[3,4-d]pyrimidin-4(3H)-one], the EC50 with HBV is less than 0.05 µM. In series [1], the CC50 at 3 days worked out at 29.5 µM.

For the molecule `C=C[C@H](C)Nc1nc2c(c(=O)n1-c1ccc3c(cnn3C)c1)C[C@@H](C)N(C(=O)c1ccc(Br)c(C(F)(F)F)c1)C2` [Compound 33, (6R)-7-[4-bromo-3-(trifluoromethyl)benzoyl]-6-methyl-2-[[(1S)-1-methylallyl]amino]-3-(1-methylindazol-5-yl)-6,8-dihydro-5H-pyrido[3,4-d]pyrimidin-4-one], in the series with HBV, the EC50 is less than 0.05 µM. In series [1], this molecule displayed a CC50 at 3 days greater than 50 µM.

Consider `C=C[C@H](C)Nc1nc2c(c(=O)n1-c1cc(Cl)c3c(cnn3C)c1)C[C@@H](C)N(C(=O)c1ccc(Br)c(C(F)(F)F)c1)C2` [Compound 34], for which the EC50 in the series on HBV was less than 0.05 µM. In series [1], this molecule registered a CC50 at 3 days of 11.6 µM.

As for `C=C[C@H](C)Nc1nc2c(c(=O)n1-c1ccc3c(c1)ncn3CC(F)(F)F)C[C@@H](C)N(C(=O)c1ccc(Br)c(C(F)(F)F)c1)C2` [Compound 35, (6R)-7-[4-bromo-3-(trifluoromethyl)benzoyl]-6-methyl-2-[[(1S)-1-methylallyl]amino]-3-[1-(2,2,2-trifluoroethyl)benzimidazol-5-yl]-6,8-dihydro-5H-pyrido[3,4-d]pyrimidin-4-one], the EC50 with HBV is less than 0.05 µM. For the same molecule, the CC50 at 3 days in series [1] was 28.5 µM.

For the molecule `C=C[C@H](C)Nc1nc2c(c(=O)n1-c1ccn3c(C)nnc3c1)C[C@@H](C)N(C(=O)c1ccc(Br)c(C(F)(F)F)c1)C2` [Compound 36, (6R)-7-[4-bromo-3-(trifluoromethyl)benzoyl]-6-methyl-2-[[(1S)-1-methylallyl]amino]-3-(3-methyl-[1,2,4]triazolo[4,3-a]pyridin-7-yl)-6,8-dihydro-5H-pyrido[3,4-d]pyrimidin-4-one], the EC50 with HBV was less than 0.05 µM. This molecule showed a half-maximal cytotoxic concentration (CC50) at 3 days in series [1] greater than 50 µM.

`C=C[C@H](C)Nc1nc2c(c(=O)n1-c1ccc(-c3cnn(C)c3)cn1)C[C@@H](C)N(C(=O)c1ccc(Br)c(C(F)(F)F)c1)C2` [Compound 37, (6R)-7-[4-bromo-3-(trifluoromethyl)benzoyl]-6-methyl-2-[[(1S)-1-methylallyl]amino]-3-[5-(1-methylpyrazol-4-yl)-2-pyridyl]-6,8-dihydro-5H-pyrido[3,4-d]pyrimidin-4-one]: the EC50 with HBV is less than 0.05 µM. In series [1], the CC50 at 3 days is greater than 50 µM.
